The test is described as follows: cytotoxicity in cultured cells, late-stage follow-up, cytotoxicity control for LYPLA1 inhibitor project, cell-based, absorbance, serum-free and serum media, set 2 (AID 504510). The following applies: cell viability, serum-free vs serum media.

Active and inactive are the calls of the source. No rule for the calls is given here.

These results are taken from PubChem BioAssay AID504510 (The Scripps Research Institute Molecular Screening Center, 2011).

As usually defined, the CC50 is the concentration giving 50% cytotoxicity.

As for `CCC1CCCCN1C(=O)n1ncc(C(O)(c2ccccc2)c2ccccc2)n1` (centres undefined), the CC50 reads like this: (serum-free media) > 50 µM (inactive); (with FCS) > 50 µM (inactive).
On to `COCC1CCCCN1C(=O)n1ncc(C(O)(c2ccccc2)c2ccccc2)n1` (centres undefined), for which the CC50 runs as follows: (serum-free media) > 50 µM (inactive); (with FCS) > 50 µM (inactive).
